Here are results for 35 compounds from patent publication US20050197350A1, “Novel quinoline, tetrahydroquinazoline, and pyrimidine derivatives and methods of treatment related to the use thereof” (TAISHO PHARMACEUTICAL CO., LTD., priority 2003, published 2005).

The first assay concerns MCH receptors. Description: MCH receptor activity class (method not given).
Conditions: not given
As to `COc1cccc(C(=O)N[C@H]2CC[C@@H](Nc3cc(C)c4ccccc4n3)CC2)c1` [Example 2549, 3-methoxy-N-{cis-4-[(4-methylquinolin-2-yl)amino]cyclohexyl}benzamide], the class came to 1.

Staying with this assay, now noted: MCH receptor activity class 1-3 (percent of control at 10^-7 M or IC50).
On to `CCc1cccc(C)c1NC(=S)N[C@H]1CC[C@@H](Nc2nccc(N(C)C)n2)CC1` [compound 2325], for which the class was 3 (Class 3 The value of percent of control at 10^−7 M was more than 60% or the value of IC50 was more than 200 nM.).
`CSc1ccc(NC(=O)NC[C@H]2CC[C@@H](Nc3nccc(N(C)C)n3)CC2)cc1` [compound 2411]: the class was 3 (Class 3 The value of percent of control at 10^−7 M was more than 60% or the value of IC50 was more than 200 nM.).
Same read-out and setting: the result for `Cc1cccc([N+](=O)[O-])c1NC(=O)NC[C@H]1CC[C@@H](Nc2cc(N(C)C)c3ccccc3n2)CC1` [compound 2401] reads 3 (Class 3 The value of percent of control at 10^−7 M was more than 60% or the value of IC50 was more than 200 nM.).

The same assay, now with this note: MCH receptor; class by percent of control at 10^-7 M or IC50.
Turning to `CCC(Oc1ccccc1)C(=O)N[C@H]1CC[C@@H](Nc2cc(N(C)C)c3ccccc3n2)CC1` (relative stereo) [compound 48, N-(cis-4-{[4-(dimethylamino)quinolin-2-yl]amino}cyclohexyl)-2-phenoxybutanamide], the class is 1 (Class 1: The value of percent of control at 10^−7 M was less than 40% or the value of IC50 was less than 50 nM.).
“N-cyclopropyl-N′-(cis-4-{[4-(dimethylamino)-5,6,7,8-tetrahydroquinazolin-2-yl]amino}cyclohexyl)thiourea [compound 2028]”: the class was 3 (Class 3 The value of percent of control at 10^−7 M was more than 60% or the value of IC50 was more than 200 nM.).
On to `Cc1ccc(Cl)cc1NC(=O)N[C@H]1CC[C@@H](Nc2nc3c(c(N(C)C)n2)CCCC3)CC1` [compound 1900], for which the class is listed as 3 (Class 3 The value of percent of control at 10^−7 M was more than 60% or the value of IC50 was more than 200 nM.).
In the case of `CN(C)c1cc(N[C@H]2CC[C@@H](NC(=O)c3ccc(Cl)c(Cl)c3)CC2)nc2ccccc12` [compound 31], the class is 1 (Class 1: The value of percent of control at 10^−7 M was less than 40% or the value of IC50 was less than 50 nM.).
Same read-out and setting: the result for `CN(C)c1nc(N[C@H]2CC[C@@H](NC(=S)NCCN3CCOCC3)CC2)nc2c1CCCC2` [compound 2074] reads 3 (Class 3 The value of percent of control at 10^−7 M was more than 60% or the value of IC50 was more than 200 nM.); that for `C#CCNC(=S)N[C@H]1CC[C@@H](Nc2nc3c(c(N(C)C)n2)CCCC3)CC1` [compound 2056], 3 (Class 3 The value of percent of control at 10^−7 M was more than 60% or the value of IC50 was more than 200 nM.).

The assay is the same for the next values; noted with them: activity class 1-3: percent of control at 10^-7 M or IC50.
Regarding `COc1cc(COC(=O)NC[C@H]2CC[C@@H](Nc3cc(N(C)C)c4ccccc4n3)CC2)c([N+](=O)[O-])cc1OC` [compound 1561], the class was 3 (Class 3 The value of percent of control at 10^−7 M was more than 60% or the value of IC50 was more than 200 nM.).
On the same count and under the same terms, the result for `CN(C)c1cc(N[C@H]2CC[C@@H](NC(=O)OCCOCc3ccccc3)CC2)nc2ccccc12` [compound 1539] reads 3 (Class 3 The value of percent of control at 10^−7 M was more than 60% or the value of IC50 was more than 200 nM.); that for `CN(C)c1nc(N[C@H]2CC[C@@H](NC(=O)Nc3ccc(C#N)cc3)CC2)nc2c1CCCC2` [compound 1688], 3 (Class 3 The value of percent of control at 10^−7 M was more than 60% or the value of IC50 was more than 200 nM.).

The assay is the same for the next values; noted with them: activity class per percent of control at 10^-7 M or IC50.
As for `COc1ccc(CN[C@H]2CC[C@@H](Nc3cc(N(C)C)c4ccccc4n3)CC2)c(OC)c1` [compound 1094], the class is 3 (Class 3 The value of percent of control at 10^−7 M was more than 60% or the value of IC50 was more than 200 nM.).
The same measure, in the same setting: the result for `CN(C)c1cc(N[C@H]2CC[C@@H](NCc3c[nH]nc3-c3ccc(C(F)(F)F)cc3)CC2)nc2ccccc12` [compound 1098] reads 3 (Class 3 The value of percent of control at 10^−7 M was more than 60% or the value of IC50 was more than 200 nM.).
On the same count and under the same terms, the result for `Cc1cc(C(=O)N[C@H]2CC[C@@H](Nc3nc4c(c(N(C)C)n3)CCCC4)CC2)cc(C)c1[N+](=O)[O-]` [compound 1050] reads 3 (Class 3 The value of percent of control at 10^−7 M was more than 60% or the value of IC50 was more than 200 nM.).
Still for that read-out and setting: the result for `CN(C)c1nc(N[C@H]2CC[C@@H](CNC(=O)/C=C/c3cccc([N+](=O)[O-])c3)CC2)nc2c1CCCC2` [compound 1070] reads 2 (Class 2: The value of percent of control at 10^−7 M was from 40% to 60% or the value of IC′50 was from 50 nM to 200 nM.).

Staying with this assay, now noted: class by percent of control at 10^-7 M or IC50.
For the compound `Cc1cc(C(=O)N[C@H]2CC[C@@H](Nc3nccc(N(C)C)n3)CC2)c(C)o1` [compound 289, N-(cis-4-{[4-(dimethylamino)pyrimidin-2-yl]amino}cyclohexyl)-2,5-dimethyl-3-furamide], the class is listed as 2 (Class 2: The value of percent of control at 10^−7 M was from 40% to 60% or the value of IC′50 was from 50 nM to 200 nM.).
Same read-out and setting: the result for `Cc1cc(C(=O)N[C@H]2CC[C@@H](Nc3nccc(N(C)C)n3)CC2)ccc1F` [compound 299, N-(cis-4-{[4-(dimethylamino)pyrimidin-2-yl]amino}cyclohexyl)-4-fluoro-3-methylbenzamide] reads 1 (Class 1: The value of percent of control at 10^−7 M was less than 40% or the value of IC50 was less than 50 nM.); that for `CN(C)c1nc(N[C@H]2CC[C@@H](CNCc3cc(Cl)cc(Cl)c3)CC2)nc2c1CCCC2` [compound 1429], 3 (Class 3 The value of percent of control at 10^−7 M was more than 60% or the value of IC50 was more than 200 nM.).
On the same count and under the same terms, the result for `Cc1c(C)c(C)c(CNC2CCC(Nc3nc4c(c(N(C)C)n3)CCCC4)CC2)c(C)c1C` (centres unmarked) [compound 1485] reads 2 (Class 2: The value of percent of control at 10^−7 M was from 40% to 60% or the value of IC′50 was from 50 nM to 200 nM.); that for `COc1cc(Br)cc(CNC[C@H]2CC[C@@H](Nc3nccc(N(C)C)n3)CC2)c1O` [compound 1250], 1 (Class 1: The value of percent of control at 10^−7 M was less than 40% or the value of IC50 was less than 50 nM.); that for `CN(C)c1ccnc(N[C@H]2CC[C@@H](CNC(=O)c3cc(C(F)(F)F)ccc3F)CC2)n1` [compound 410], 3 (Class 3 The value of percent of control at 10^−7 M was more than 60% or the value of IC50 was more than 200 nM.).
The same measure, in the same setting: the result for `CN(C)c1nc(N[C@H]2CC[C@@H](NC(=S)Nc3ccc(Br)cc3OC(F)(F)F)CC2)nc2c1CCCC2` [compound 1787] reads 2 (Class 2: The value of percent of control at 10^−7 M was from 40% to 60% or the value of IC′50 was from 50 nM to 200 nM.); that for `CC(NC(=O)N[C@H]1CC[C@@H](Nc2nccc(N(C)C)n2)CC1)c1cccc2ccccc12` (relative stereo) [compound 2224, N-(cis-4-{[4-(dimethylamino)pyrimidin-2-yl]amino}cyclohexyl)-N′-[1-(1-naphthyl)ethyl]urea], 1 (Class 1: The value of percent of control at 10^−7 M was less than 40% or the value of IC50 was less than 50 nM.).
For the compound `CCCCCNC(=O)N[C@H]1CC[C@@H](Nc2nccc(N(C)C)n2)CC1` [compound 2223], the class is recorded as 3 (Class 3 The value of percent of control at 10^−7 M was more than 60% or the value of IC50 was more than 200 nM.).
On the same count and under the same terms, the result for `CC(NC(=O)N[C@H]1CC[C@@H](Nc2cc(N(C)C)c3ccccc3n2)CC1)c1ccc(Br)cc1` (relative stereo) [compound 2158] reads 3 (Class 3 The value of percent of control at 10^−7 M was more than 60% or the value of IC50 was more than 200 nM.); that for `CN(C)c1ccnc(N[C@H]2CC[C@@H](NC(=S)Nc3ccc(C#N)cc3)CC2)n1` [compound 2258], 2 (Class 2: The value of percent of control at 10^−7 M was from 40% to 60% or the value of IC′50 was from 50 nM to 200 nM.); that for `CN(C)c1nc(N[C@H]2CC[C@@H](NC(=O)Nc3ccc(Br)cc3F)CC2)nc2c1CCCC2` [compound 1884], 3 (Class 3 The value of percent of control at 10^−7 M was more than 60% or the value of IC50 was more than 200 nM.).
On the same count and under the same terms, the result for `CN(C)c1cc(N[C@H]2CC[C@@H](NC(=O)c3ccc(Br)o3)CC2)nc2ccccc12` [compound 694, 5-bromo-N-(cis-4-{[4-(dimethylamino)quinolin-2-yl]amino}cyclohexyl)-2-furamide] reads 1 (Class 1: The value of percent of control at 10^−7 M was less than 40% or the value of IC50 was less than 50 nM.).
Still for that read-out and setting: the result for `Cc1cc(Br)ccc1NC(=O)N[C@H]1CC[C@@H](Nc2nccc(N(C)C)n2)CC1` [compound 2249, N-(4-bromo-2-methylphenyl)-N′-(cis-4-{[4-(dimethylamino)pyrimidin-2-yl]amino}cyclohexyl)urea] reads 2 (Class 2: The value of percent of control at 10^−7 M was from 40% to 60% or the value of IC′50 was from 50 nM to 200 nM.).
For `CN(C)c1nc(N[C@H]2CC[C@@H](CNC(=O)c3ccc4c(c3)OCO4)CC2)nc2c1CCCC2` [compound 609], the class was 3 (Class 3 The value of percent of control at 10^−7 M was more than 60% or the value of IC50 was more than 200 nM.).

Still in this assay, the particulars now being: class by percent of control at 10^−7 M or IC50.
Take `Cc1cc(N(C)C)nc(N[C@H]2CC[C@@H](CNC(=O)c3ccc(C(F)(F)F)cc3)CC2)n1` [compound 2758]: the class was 2 (Class 2: The value of percent of control at 10^−7 M was from 40% to 60% or the value of IC′50 was from 50 nM to 200 nM.).
Same read-out and setting: the result for `COc1ccc([C@H](C)NC(=O)[C@H]2CC[C@@H](Nc3ncc(C)c(N(C)C)n3)CC2)cc1` [compound 2777, cis-4-{[4-(dimethylamino)-5-methylpyrimidin-2-yl]amino}-N-[(1S)-1-(4-methoxyphenyl)ethyl]cyclohexanecarboxamide] reads 1 (Class 1: The value of percent of control at 10^−7 M was less than 40% or the value of IC50 was less than 50 nM.); that for `Cc1nc(N[C@H]2CC[C@@H](NC(=O)c3ccc(Br)cc3)CC2)nc(N(C)C)c1C` [compound 2849, 4-bromo-N-(cis-4-{[4-(dimethylamino)-5,6-dimethylpyrimidin-2-yl]amino}cyclohexyl)benzamide], 1 (Class 1: The value of percent of control at 10^−7 M was less than 40% or the value of IC50 was less than 50 nM.).
